System: human mammary carcinoma of the MCF-7 line
Assay: Inhibition of the growth of a human mammary carcinoma in the mouse model
Assay type: in vivo, Balb/c nu/nu-mice
Protocol: 2×6 female Balb/c nu/nu-mice (Bomholtgard, oestrogen-stimulated with 5 mg of oestradiol in a perforated plastics tube "Silastic®" (Dow Chemical, Michigan, USA)) are implanted with tumours by subcutaneous transplantation of fragments of human mammary carcinoma (about 25 mg) of the MCF-7 line (American Type Culture Collection, Maryland, USA; see H. D. Soule et al., J. Nat. Cancer Inst. 51, 1409-1416 (1973)). After the tumours have grown to a volume of about 30 to 100 mm^3 (after 13 days), 6 mice (test group) are each given twice dally over a period of 25 days a dose of 50 mg/kg of Boc-Phe[C]Phe-(L)-Val-(L)-Phe-morpholin-4-ylamide (dissolved in a concentration of 2 mg/ml in a 5% solution of dimethyl sulfoxide and 20% hydroxypropyl-β-cyclodextrin in water, prepared by dissolution of the test compound in dimethyl sulfoxide and dilution with aqueous hydroxypropyl-β-cyclodextrin solution). […] After 25 days (50 administrations) the following tumour volumes (mean value) are determined:
The tumour growth is determined by measuring the diameter along the longitudinal axis of the tumour (L) and perpendicular thereto (D) (in a living animal by means of a calliper gauge). The tumour volumes are calculated in accordance with the formula π×L×D^2 /6 (Evans, B. D., et al., Brit. J. Cancer 45, 466-468 (1982)).

Boc-Phe[C]Phe-(L)-Val-(L)-Phe-morpholin-4-ylamide
tumour growth in comparison with the control group (MCF-7 tumours in female Balb/c nu/nu-mice, 50 mg/kg orally twice daily for 25 days): marked reduction in tumour growth
tumour volume (mean value) (subcutaneous MCF-7 tumour fragments in oestrogen-stimulated female Balb/c nu/nu-mice, 50 mg/kg orally twice daily, after 25 days (50 administrations), placebo control 0.96 cm^3): 0.30 cm^3

From US5663168A, “Use of compositions for combating tumour diseases” (CIBA-Geigy Corporation, priority 1993, dated 1997)
